Results on 35 molecules are retold here after ChEMBL document CHEMBL1759972, “Phenoxyacetic acids as PPARδ partial agonists: synthesis, optimization, and in vivo efficacy” (Bioorg Med Chem Lett, 2011).

Test [1] has as its target T1, Peroxisome proliferator-activated receptor delta (Homo sapiens, UniProt Q03181).
T1 sequence (Q03181 whole entry): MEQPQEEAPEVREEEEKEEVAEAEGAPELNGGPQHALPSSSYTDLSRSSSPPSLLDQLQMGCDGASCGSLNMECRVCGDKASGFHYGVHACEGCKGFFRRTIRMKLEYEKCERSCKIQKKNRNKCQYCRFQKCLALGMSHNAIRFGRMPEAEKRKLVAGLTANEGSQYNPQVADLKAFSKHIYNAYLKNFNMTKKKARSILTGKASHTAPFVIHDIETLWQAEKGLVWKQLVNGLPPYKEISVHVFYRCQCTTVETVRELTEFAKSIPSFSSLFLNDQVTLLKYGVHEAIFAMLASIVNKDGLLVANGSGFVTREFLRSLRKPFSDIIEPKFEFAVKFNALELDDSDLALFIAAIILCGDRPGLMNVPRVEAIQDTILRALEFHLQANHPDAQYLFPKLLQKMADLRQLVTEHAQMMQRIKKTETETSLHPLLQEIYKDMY
Description: Partial agonist activity at human PPARdelta expressed in african green monkey CV1 cells transfected with Gal4 assessed as beta-galactosidase activity by transactivation assay

Test [2] concerns the target T2, Peroxisome proliferator-activated receptor alpha (Homo sapiens, UniProt Q07869).
T2 sequence (Q07869 whole entry): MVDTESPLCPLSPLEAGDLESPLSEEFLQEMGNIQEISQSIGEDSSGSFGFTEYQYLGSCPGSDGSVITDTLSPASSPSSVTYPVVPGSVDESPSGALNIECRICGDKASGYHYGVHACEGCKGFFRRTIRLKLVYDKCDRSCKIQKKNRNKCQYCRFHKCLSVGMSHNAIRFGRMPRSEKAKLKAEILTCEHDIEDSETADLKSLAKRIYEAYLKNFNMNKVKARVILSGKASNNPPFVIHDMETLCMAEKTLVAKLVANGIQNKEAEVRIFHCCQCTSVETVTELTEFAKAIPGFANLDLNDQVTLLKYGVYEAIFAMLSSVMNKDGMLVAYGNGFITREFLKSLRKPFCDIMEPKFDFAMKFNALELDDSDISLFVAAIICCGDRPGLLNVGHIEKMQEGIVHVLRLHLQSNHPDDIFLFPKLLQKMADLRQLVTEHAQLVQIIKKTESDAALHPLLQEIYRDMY
The test is described as follows: Displacement of [3H]GW 2433 from human PPARalpha by scintillation proximity assay.

In test [3] the target is T1, Peroxisome proliferator-activated receptor delta. The source holds these as a separate data set.
Description: Displacement of [3H]GW 2433 from human PPARdelta by scintillation proximity assay
The target of test [4] is T3, Peroxisome proliferator-activated receptor gamma (Homo sapiens, UniProt P37231).
T3 sequence (P37231 whole entry): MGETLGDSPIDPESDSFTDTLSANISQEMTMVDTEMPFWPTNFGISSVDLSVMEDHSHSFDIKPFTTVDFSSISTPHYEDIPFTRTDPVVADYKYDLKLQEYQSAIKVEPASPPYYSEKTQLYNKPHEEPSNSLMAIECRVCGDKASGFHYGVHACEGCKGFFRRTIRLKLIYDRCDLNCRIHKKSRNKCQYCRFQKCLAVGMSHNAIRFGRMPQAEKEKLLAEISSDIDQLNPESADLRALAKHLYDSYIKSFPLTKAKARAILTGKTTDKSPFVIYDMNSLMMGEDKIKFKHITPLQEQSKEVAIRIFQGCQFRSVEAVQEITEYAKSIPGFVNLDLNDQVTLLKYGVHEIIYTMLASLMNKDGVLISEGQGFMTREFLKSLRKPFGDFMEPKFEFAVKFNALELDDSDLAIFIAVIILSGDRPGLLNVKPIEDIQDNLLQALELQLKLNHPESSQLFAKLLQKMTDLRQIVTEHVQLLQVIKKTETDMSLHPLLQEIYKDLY
Description: Displacement of [3H]GW 2433 from human PPARgamma by scintillation proximity assay

Take `COCCN(c1cccc(-c2ccc(Cl)cc2)c1C)S(=O)(=O)c1ccc(OC(C)C(=O)O)c(C)c1C` (stereo not given): a half-maximal response in test [1] (EC50) required 501 nM. The IC50 in test [2] is > 20000 nM; in test [3], 501 nM.

`CCCCCN(c1cccc(-c2ccc(Cl)cc2)c1C)S(=O)(=O)c1ccc(OC(C)C(=O)O)c(C)c1C` (stereo not given) gave an EC50 in test [1] of 398 nM. Further, the IC50 in test [2] is 15800 nM; in test [3], 794 nM.

Take `CCCCN(c1cccc(-c2ccc(Cl)cc2)c1C)S(=O)(=O)c1ccc(OC(C)C(=O)O)c(F)c1F` (stereo not given): the values for the IC50 in test [2] and in test [3] were 10000 nM and 631 nM, respectively.

On to `CCCCN(c1c(C)cc(C)c(-c2ccc(Cl)cc2)c1C)S(=O)(=O)c1ccc(OC(C)C(=O)O)c(C)c1C` (stereo not given), for which the IC50 in test [4] was 7940 nM; in test [2], 20000 nM; in test [3], 10000 nM. Further, the EC50 in test [1] is > 10000 nM.

For the molecule `CCCCN(c1cccc(-c2ccc(C(F)(F)F)cc2)c1C)S(=O)(=O)c1ccc(OC(C)C(=O)O)c(C)c1C` (stereo not given), the values for the IC50 in test [2] and in test [3] were 15800 nM and 15.8 nM, respectively.

For the molecule `CCCCN(c1ccc(F)c(-c2ccc(Cl)cc2)c1)S(=O)(=O)c1ccc(OC(C)C(=O)O)c(C)c1C` (stereo not given), the IC50 is 2000 nM in test [4], 20000 nM in test [2] and 200 nM in test [3]. Moreover, in test [1], the EC50 is 39.8 nM.

For `CCCCN(c1cccc(-c2ccc(OC(F)(F)F)cc2)c1C)S(=O)(=O)c1ccc(OC(C)C(=O)O)c(C)c1C` (stereo not given), in test [1], the EC50 was 39.8 nM. Further, the IC50 was 10000 nM in test [2] and 79.4 nM in test [3].

With `CCCCN(c1cc(-c2ccc(Cl)cc2)cc(C(F)(F)F)c1)S(=O)(=O)c1ccc(OC(C)C(=O)O)c(C)c1C` (stereo not given), the IC50 is 5010 nM in test [4], 12600 nM in test [2] and 63.1 nM in test [3]. The EC50 in test [1] was 100 nM.

Turning to `CCCCN(c1cccc(-c2ccc(Cl)cc2)c1C)S(=O)(=O)c1ccc(OC(C)C(=O)O)c(OC)c1OC` (stereo not given), the EC50 in test [1] is > 10000 nM. Besides, the IC50 in test [2] is > 25100 nM; in test [3] it was 5010 nM.

`CCCCN(c1cccc(-c2ccc(Cl)cc2)c1C)S(=O)(=O)c1ccc(OC(C)C(=O)O)c(OC)c1Cl` (stereo not given): in test [1], the response was half-maximal at 316 nM (EC50). In addition, the results for the IC50 in test [2] and in test [3] were 15800 nM and 158 nM, respectively.

`Cc1c(-c2ccc(Cl)cc2)cccc1N(CC1CC1)S(=O)(=O)c1ccc(OC(C)C(=O)O)c(C)c1C` (stereo not given): the midpoint of the response in test [1], the EC50, lay at 794 nM. Besides, the IC50 in test [2] is 15800 nM; in test [3], 794 nM.

Consider `CCCCN(c1ccc(C)c(-c2ccc(Cl)cc2)c1)S(=O)(=O)c1ccc(OC(C)C(=O)O)c(C)c1C` (stereo not given), for which the IC50 in test [4] is 3160 nM; in test [2], 20000 nM; in test [3], 398 nM. In addition, the EC50 in test [1] is 126 nM.

For `CCCCN(c1cccc(-c2ccc(Cl)cc2)c1C)S(=O)(=O)c1ccc(O[C@@H](C)C(=O)O)c(C)c1C`, it took 316 nM to reach a half-maximal effect in test [1] (EC50). Also, the figures for the IC50 in test [2] and in test [3] were 15800 nM and 631 nM, respectively.

As for `CCCCN(c1cccc(-c2ccc(Cl)cc2)c1C)S(=O)(=O)c1ccc(OC(CCC)C(=O)O)c(C)c1C` (stereo not given), the EC50 in test [1] was > 10000 nM. The 50% inhibitory concentration (IC50) in test [2] is 10000 nM; in test [3], 158 nM.

As to `CCCCN(c1cccc(-c2ccccc2Cl)c1C)S(=O)(=O)c1ccc(OC(C)C(=O)O)c(C)c1C` (stereo not given), in test [1], the EC50 is 2000 nM. Further, the values for the IC50 in test [2] and in test [3] were 12600 nM and 1580 nM, respectively.

On to `Cc1c(-c2ccc(Cl)cc2)cccc1N(CC1CCC1)S(=O)(=O)c1ccc(OC(C)C(=O)O)c(C)c1C` (stereo not given), for which a half-maximal response in test [1] (EC50) required 501 nM. In addition, the figures for the IC50 in test [2] and in test [3] were 12600 nM and 1000 nM, respectively.

In the case of `CCCCN(c1cc(-c2ccc(Cl)cc2)c(F)cc1C)S(=O)(=O)c1ccc(OC(C)C(=O)O)c(C)c1C` (stereo not given), the IC50 in test [4] was 7940 nM; in test [2], 10000 nM; in test [3], 5010 nM. This molecule gave an EC50 in test [1] of 3160 nM.

Consider `CCCCN(c1cccc(-c2ccc(Cl)cc2)c1C)S(=O)(=O)c1ccc(OC(C)C(=O)O)c(F)c1Cl` (stereo not given), for which the response in test [1] was half-maximal at 398 nM (EC50). Besides, the IC50 in test [2] was 12600 nM; in test [3], 251 nM.

With `CCCCN(c1cccc(-c2ccc(C)cc2)c1C)S(=O)(=O)c1ccc(OC(C)C(=O)O)c(C)c1C` (stereo not given), the EC50 in test [1] is 31.6 nM. Further, the IC50 in test [2] is 15800 nM; in test [3], 79.4 nM.

Turning to `CCCCN(c1cccc(-c2ccc(Cl)cc2)c1C)S(=O)(=O)c1ccc(OC(C)C(=O)O)c(C2CCCCC2)c1` (stereo not given), the IC50 in test [4] was 7940 nM; in test [2], 15800 nM; in test [3], 15.8 nM. Moreover, the EC50 in test [1] is 15.8 nM.

Take `Cc1cc(S(=O)(=O)N(CCC(C)C)c2cccc(-c3ccc(C(F)(F)F)cc3)c2)ccc1OCC(=O)O`: the IC50 is 5010 nM in test [4], 15800 nM in test [2] and 1260 nM in test [3]. Further, the EC50 in test [1] is 158 nM.

For the molecule `CCCCN(c1cccc(-c2ccc(Cl)cc2)c1C)S(=O)(=O)c1ccc(OCC(=O)O)c(C)c1C`, the IC50 in test [4] was 2510 nM; in test [2] it was 6310 nM; in test [3], 12.6 nM. Also, a half-maximal effect in test [1] (EC50) was put at 2 nM.

`CCCCN(c1cccc(-c2ccc(Cl)c(Cl)c2)c1C)S(=O)(=O)c1ccc(OC(C)C(=O)O)c(C)c1C` (stereo not given) showed a 50% effective concentration (EC50) in test [1] of 126 nM. Besides, the IC50 in test [2] is 20000 nM; in test [3] it was 126 nM.

In test [1], `CCCCN(c1cccc(-c2ccc(Cl)cc2)c1Cl)S(=O)(=O)c1ccc(OC(C)C(=O)O)c(C)c1C` (stereo not given) showed an EC50 of 10 nM. In addition, the figures for the IC50 in test [2] and in test [3] were 12600 nM and 7.94 nM, respectively.

`CCCCN(c1cccc(-c2ccc(Cl)cc2)c1OC)S(=O)(=O)c1ccc(OC(C)C(=O)O)c(C)c1C` (stereo not given): the EC50 in test [1] was 20 nM. For the same molecule, the IC50 was 12600 nM in test [2] and 25.1 nM in test [3].

Regarding `CCCCN(c1cc(-c2ccc(Cl)cc2)ccc1C)S(=O)(=O)c1ccc(OC(C)C(=O)O)c(C)c1C` (stereo not given), the IC50 was 6310 nM in test [4], 10000 nM in test [2] and 1580 nM in test [3]. In addition, in test [1], the EC50 was 794 nM.

In test [1], `CCCCN(c1cccc(-c2ccc(Cl)cc2)c1C)S(=O)(=O)c1ccc(O[C@H](C)C(=O)O)c(C)c1C` had an EC50 of 12.6 nM. For the same molecule, the values for the IC50 in test [2] and in test [3] were 20000 nM and 25.1 nM, respectively.

Regarding `CCCN(c1cccc(-c2ccc(Cl)cc2)c1C)S(=O)(=O)c1ccc(OC(C)C(=O)O)c(C)c1C` (stereo not given), the EC50 in test [1] is 79.4 nM. Further, the IC50 in test [2] is 20000 nM; in test [3], 126 nM.

On to `CCCCN(c1cccc(-c2ccc(Cl)cc2)c1C)S(=O)(=O)c1ccc(OC(C)C(=O)O)c(Cl)c1Cl` (stereo not given), for which the response in test [1] was half-maximal at 63.1 nM (EC50). In addition, the IC50 was 10000 nM in test [2] and 79.4 nM in test [3].

`Cc1c(-c2ccc(Cl)cc2)cccc1N(CCCC(F)(F)F)S(=O)(=O)c1ccc(OC(C)C(=O)O)c(C)c1C` (stereo not given): the response in test [1] was half-maximal at 2000 nM (EC50). Further, the IC50 is 20000 nM in test [2] and 1260 nM in test [3].

With `CCCCN(c1cccc(-c2ccc(Cl)cc2)c1C)S(=O)(=O)c1ccc(OC(C)C(=O)O)c(F)c1OC` (stereo not given), in test [2], the IC50 was 15800 nM.

As for `CCCCC(Oc1ccc(S(=O)(=O)N(CCCC)c2cccc(-c3ccc(Cl)cc3)c2C)c(C)c1C)C(=O)O` (stereo not given), the EC50 in test [1] is > 10000 nM. For the same molecule, the IC50 was 10000 nM in test [2] and 158 nM in test [3].

As for `CCCCN(c1cccc(-c2cccc(Cl)c2)c1C)S(=O)(=O)c1ccc(OC(C)C(=O)O)c(C)c1C` (stereo not given), the midpoint of the response in test [1], the EC50, lay at 501 nM. Moreover, the IC50 in test [2] was 7940 nM; in test [3] it was 631 nM.

In turn, `CCCCN(c1cccc(-c2ccc(OC)cc2)c1C)S(=O)(=O)c1ccc(OC(C)C(=O)O)c(C)c1C` (stereo not given) showed a half-maximal effective concentration (EC50) in test [1] of 39.8 nM. The IC50 was 15800 nM in test [2] and 100 nM in test [3].

Turning to `CCCCN(c1cccc(-c2ccc(Cl)cc2)c1C)S(=O)(=O)c1ccc(OC(CC)C(=O)O)c(C)c1C` (stereo not given), in test [1], the midpoint of the response, the EC50, lay at 126 nM. Also, the IC50 is 15800 nM in test [2] and 63.1 nM in test [3].
